Values quoted from earlier work as cited in US11173064B2, “High-precision drug delivery by dual-domain ocular device” (LYNTHERA CORPORATION, priority 2016, dated 2021).
Counter-ions that a name gives are not always drawn.

Details: octanol/water

log P	Structure (SMILES)
~3.2	CCNC(=O)CCC/C=C\C[C@@H]1[C@@H](/C=C/[C@@H](O)CCc2ccccc2)[C@H](O)C[C@@H]1O [bimatoprost]
~1.4	CC(C)(C)NC[C@H](O)COc1nsnc1N1CCOCC1 [timolol maleate]
